Measured values taken from publication PMC6934184, “Selective DNA-PKcs inhibition extends the therapeutic index of localized radiotherapy and chemotherapy” (The Journal of Clinical Investigation, 2019).

Target: T1, AMPK A2/B1/G1 (Homo sapiens, UniProt P54646)
T1 construct: purchased Thermo Fisher Scientific (Life Technologies) SelectScreen
Assay: SelectScreen Z'LYTE
Assay type: biochemical
Method in brief: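 NU5455 was profiled across the SelectScreen Broad panel of kinase activity and binding assays. Z'LYTE reactions such as CSF1R ran at apparent Km ATP, while the Adapta CAMK1 assay used ATP listed as 10. Values are given as percent.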

T1 sequence (P54646 whole entry): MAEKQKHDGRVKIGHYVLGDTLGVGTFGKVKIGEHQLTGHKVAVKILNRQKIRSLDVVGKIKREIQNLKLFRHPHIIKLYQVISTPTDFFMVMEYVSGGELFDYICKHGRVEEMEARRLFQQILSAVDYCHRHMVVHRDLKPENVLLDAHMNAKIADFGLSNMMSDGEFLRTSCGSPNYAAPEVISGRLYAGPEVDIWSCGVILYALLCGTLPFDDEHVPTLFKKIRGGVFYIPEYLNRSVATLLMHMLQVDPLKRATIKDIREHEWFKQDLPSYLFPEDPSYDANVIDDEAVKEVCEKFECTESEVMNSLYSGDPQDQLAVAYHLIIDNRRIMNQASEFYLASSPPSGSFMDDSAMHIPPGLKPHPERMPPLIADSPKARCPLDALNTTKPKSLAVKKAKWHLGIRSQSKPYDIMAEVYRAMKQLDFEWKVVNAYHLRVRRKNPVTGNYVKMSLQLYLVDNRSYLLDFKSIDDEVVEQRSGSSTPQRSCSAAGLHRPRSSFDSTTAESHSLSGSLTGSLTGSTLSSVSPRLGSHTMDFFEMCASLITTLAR
T1 sequence (Q9Y478 whole entry partner): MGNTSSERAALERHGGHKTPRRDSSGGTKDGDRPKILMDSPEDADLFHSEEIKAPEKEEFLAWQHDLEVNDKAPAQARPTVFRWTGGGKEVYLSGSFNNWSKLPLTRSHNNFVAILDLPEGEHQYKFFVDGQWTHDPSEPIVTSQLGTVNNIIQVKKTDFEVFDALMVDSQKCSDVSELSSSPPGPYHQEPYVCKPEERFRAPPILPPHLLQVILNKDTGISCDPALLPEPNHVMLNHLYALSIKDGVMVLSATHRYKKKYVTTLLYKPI
T1 sequence (P54619 whole entry partner): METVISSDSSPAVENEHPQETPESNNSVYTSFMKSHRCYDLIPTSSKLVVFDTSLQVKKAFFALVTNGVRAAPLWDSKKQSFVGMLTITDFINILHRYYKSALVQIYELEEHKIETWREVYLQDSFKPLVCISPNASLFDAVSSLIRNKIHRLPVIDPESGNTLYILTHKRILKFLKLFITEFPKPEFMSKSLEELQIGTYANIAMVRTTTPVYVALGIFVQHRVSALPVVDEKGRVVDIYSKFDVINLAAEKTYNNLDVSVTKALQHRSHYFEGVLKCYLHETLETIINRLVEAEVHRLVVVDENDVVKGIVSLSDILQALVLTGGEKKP

CN(C(=O)CN1CCOCC1)c1ccc2sc3c(-c4cccc5c(=O)cc(N6CC7CCC(C6)O7)oc45)cccc3c2c1 [NU5455]
inhibition at 1 µM: 2.6%
